Data: patent publication US7955815B2, “Two-photon fluorescent probes for acidic vesicles in live cells and tissue and method of imaging acidic vesicles in live cells and tissue using the same” (Korea University Industrial & Academic Collaboration …, priority 2007, dated 2011)
Values after ≈ are worked out from the molar mass of the structure shown.

Assays:
[1] = Water solubility from fluorescence intensity vs probe concentration; assay type: physicochemical; settings: kinetic from dmso stock, H2O, 0.2% DMSO, read-out: solubility (maximum concentration in the linear region)
Description: Each of the probes AH1, AH2 and AL1 prepared in Examples 1-3 was dissolved in DMSO to prepare a stock solution (1.0×10^−3 M). The solution was diluted to […] and added to a cuvette containing 3.0 mL of H2O by using a micro syringe. In all cases, the concentration of DMSO in H2O was maintained to be 0.2%. The fluorescence intensity of the probe was measured as a function of the probe concentration.
Referring to FIG. 1, the fluorescence intensities of the probes increased in all wavelength bands with increasing probe concentration.
The plots (1b, 1d and 1f) have a profile in which the fluorescence intensity increases with increasing probe concentration.
Referring to the profile, the fluorescence intensity increases linearly until the dye concentration reaches a predetermined level. […] The maximum concentration in the linear region was taken as the solubility. The solubilities of the probes AH1, AH2, and AL1 were 5.0, 9.0, and 5.0 μM, respectively.

[2] = Fluorescence as a function of pH in universal buffer; pKa value analysis; assay type: physicochemical; settings: for fluorescence intensity change with pH: pH gradually decreased; for pKa: universal buffer solution, from fluorescence intensity as a function of pH
Description: Each of the probes AH1 and AH2 was dissolved in a universal buffer solution (0.1 M citric acid, 0.1 M KH2PO4, 0.1 M Na2B4O7, 0.1 M Tris, 0.1 M KCl 10 mM).
The fluorescence intensities of the probes AH1 and AH2 were measured, and titration curves thereof were plotted (FIG. 9). In FIG. 9, Y-axis represents the fluorescence intensity enhancement factor [(F−Fo)/Fo] (F is the fluorescence intensity and Fo is the minimum fluorescence intensity).
The pKa values were estimated from the fluorescence intensity measured as a function of the pH by using the relationship 1: log [(Imax−I)/(I−Imin)]=pH−pKa (1)
wherein I represents the fluorescence intensity, and Imax and Imin represent the maximum and minimum fluorescence intensity, respectively.

[3] = Two-photon action cross section by fs fluorescence measurement, fluorescein as reference; assay type: physicochemical; settings: 780 nm
Description: The two-photon cross section (δ) was determined by using femto second (fs) fluorescence measurement technique.
Specifically, each of the probes AH1, AH2, AL1 and LYSOTRACKER™ Red (DND-99) was dissolved in a universal buffer (pH=3.2) at a concentration of 5.0×10^−6 M and then the two-photon induced fluorescence intensity was measured at 740-940 nm by using fluorescein (8.0×10^−6 M, pH=11) as the reference, whose two-photon property has been well characterized.
The intensities of the two-photon induced fluorescence spectra of the reference and the sample probe were measured, and the two-photon cross section of the sample probe was calculated according to Equation 2: […]
wherein the subscripts s and r represent the sample probe and the reference, respectively, δ represents the two-photon cross section of the sample probe, and S represents the intensity of the signal collected by a detector, Φ represents the fluorescence quantum yield, φ represents the overall fluorescence collection efficiency of the experimental apparatus, c represents the number density of the molecules in solution, and δr represents the two-photon cross section of the reference.
The two-photon action cross section of the sample probe was calculated by multiplying the two-photon cross section by the quantum yield.

[4] = test system: acidic vesicles in macrophages; assay: Two-photon microscopy images of labeled macrophages, co-localized with LysoTracker Red OPM image; assay type: cell-based; settings: TPM
From the text: TPM images of individual macrophages labeled with the probe AH2 of Example 2 were obtained (FIG. 3).
In contrast, the TPM images of the AH2-labeled macrophages emitted TPEF only at 500-620 nm (3b), and not at 360-460 nm (3a), which was attributed to the membrane-bound probe.
To unambiguously determine whether the intense red spots (3b) are indeed the acidic vesicles, the macrophages were stained With LYSOTRACKER™ Red (LTR), a well known one-photon fluorescent probe, and a one-photon micrography (OPM) image thereof was obtained (3c). The TPM image was co-localized with the OPM image (3d).
Acidic vesicles were imaged in the same manner as in Experimental Example 3-(1), except that the probe AH1 of Example 1 was used instead of the probe AH2 of Example 2.
Acidic vesicles were imaged in the same manner as in Experimental Example 3-(1), except that the probe AL1 of Example 3 was used instead of the probe AH2 of Example 2.

[5] = test system: acidic vesicles in hippocampal slices; assay: TPEF imaging of rat hippocampal slices
Description: Slices were prepared from the hippocampi of a 2-day-old rat. The hippocampal slices were cut into a thickness of 400 μm. The slices were incubated with the probes AH2 and AL1 (10-20 μM).
The slices were then washed and transferred to glass-bottomed dishes. The TPEF images of the slices were obtained.
40 TPM images were accumulated along the z-direction at the depth of ˜100-250 μm with magnification 10× (6b).

solubility [1] [µM] | fluorescence intensity change with pH [2] | pKa [2] | two-photon action cross section relative to LysoTracker Red [3] [fold] | two-photon action cross section (Φδ) ([3]; universal buffer pH 3.2, 5.0×10^−6 M) [GM] | SMILES | imaging of acidic vesicles in macrophages (TPEF at 500-620 nm, merged with LTR image) [4] | depth at which TPEF images were obtained ([5]; 400 μm hippocampal slices of 2-day-old rat, probe 10-20 μM) [μm] | imaging of transportation of acidic vesicles ([5]; acute rat hippocampal slice, CA3 region, depth ~120 μm, 10 μM)
5 (≈ 1.74 µg/mL) | increased dramatically around pH 4-5 | 4.42 ± 0.03 | 9 |  | CC(=O)c1ccc2cc(N(C)CC(=O)Nc3ccc(N)cc3)ccc2c1 [AH1] | clearly capable of imaging the acidic vesicles |  | 
9 (≈ 3.4 µg/mL) | increased dramatically around pH 4-5 | 4.18 ± 0.01 | 9 |  | COc1cc(NC(=O)CN(C)c2ccc3cc(C(C)=O)ccc3c2)ccc1N [AH2] | clearly capable of imaging the acidic vesicles | 250 | 
 |  |  |  | ~10 | CN(C)CCNC(=O)CCc1ccc2n1[B-](F)(F)[N+]1=C(c3ccc[nH]3)C=CC1=C2 [LYSOTRACKER™ Red (LTR), reference compound] |  |  | 

SMILES | solubility [1] [µM] | fluorescence intensity change with pH [2] | pKa [2] | two-photon action cross section relative to LysoTracker Red [3] [fold] | two-photon action cross section (Φδ) ([3]; universal buffer pH 3.2, 5.0×10^−6 M) [GM] | imaging of acidic vesicles in macrophages (TPEF at 500-620 nm, merged with LTR image) [4] | depth at which TPEF images were obtained ([5]; 400 μm hippocampal slices of 2-day-old rat, probe 10-20 μM) [μm] | imaging of transportation of acidic vesicles ([5]; acute rat hippocampal slice, CA3 region, depth ~120 μm, 10 μM)
CC(=O)c1ccc2cc(N(C)CC(=O)NCCN(C)C)ccc2c1 [AL1] | 5 (≈ 1.64 µg/mL) | maintained at a substantially constant level despite changes in acidity |  |  |  | clearly capable of imaging the acidic vesicles |  | can visualize the transportation of acidic vesicles in the CA3 region for a long period of time
